This is an account of results in patent publication US9637529B2, “Medicament for atrophy treatment or increasing cell growth” (SIMU TRADE CONSULTING GMBH & CO. LEASING KG, priority 2012, dated 2017).

This experiment deals with rat cardiomyocytes (H9c2). Kind of experiment: AlamarBlue proliferation assay, H9c2 cells. Type of experiment: cell-based. On the procedure: FIG. 3: Effect of SERF2 on Proliferation of H9c2 cells is dose-dependent. Proliferation assay was performed essentially as in FIG. 2. Incubation time was 24 hrs, added SERF2 concentrations ranged from 20 to 1.25 μg/ml.
FIG. 5: Kinetics of the Effect of SERF2 on Proliferation of rat cardiomyocytes (H9c2). Cells stimulated with SERF2 (green line) responded with proliferation and reached max. proliferation rate after 6 days. Proliferation assay was performed essentially as in FIG. 2. Incubation times were 24, 48, 72 and 144 hrs, the SERF2 concentration added was 5 μg/ml.
Rat derived embryonic cardiomyocytes H9c2 (ATTC CRL-1446) and embryonic skeletal muscle cells L6 (ATTC CRL-1458) were cultured in Dulbecco's Modified Eagle Medium high glucose (DMEM, Sigma Aldrich) containing 10% v/v fetal calf serum (FCS, PAA) and 1% v/v Penicillin/Streptamycin (Gibco). Cells were grown in 80 cm2 cell culture flasks (NUNC) using 15 ml growth medium. Both cell lines were incubated under humidified atmosphere at +37° C. and 5% v/v CO^2. Cells were splitted when a confluency of approximately 90% was reached. Usually a splitting ratio of 1:5 or 1:10 was applied. For this purpose, supernatant was removed and cells were washed using 10 ml Dulbecco's Phosphate Buffered Saline (DPBS, Gibco). Cells were harvested by addition of 3 ml Trypsin/EDTA (Gibco) followed by an incubation of 5 to 10 min at +37° C. Successful detachment of cells was checked under the microscope (IMT-2, Olympus) and 7 ml growth medium were added. Cell number and viability were determined by trypanblue exclusion performed by using an automated cell analyzer (CEDEX, Innovatis). For this, 950 μl DPBS and 50 μl cell-suspension were mixed and used for analysis.
Proliferation was measured using the AlamarBlue™ assay according to the manufacturer's protocol. Briefly, 1×10^4 cells were seeded per well containing 100 μl growth medium. […] Fluorescence (Ex. 570 nm, Em. 585 nm) was measured using a Varioskan Flash multi-plate reader (Thermo Scientific). Data were evaluated using Microsoft Excel and GraphPad Prism V4.

Regarding “SERF2: Small EDRK-rich factor 2, mature protein of 59 amino acids (SEQ ID NO: 1) (MTRGNQRELARQKNMKKQSDSVKGKRRDDGLSAAARKQRDSEIMQQKQKKANEKKEEPK; homo sapiens)”, the “proliferative effect on H9c2 cells” value (24 h treatment, SERF2 20 to 1.25 μg/ml) is “proliferative effect in a dose-dependent manner”. Also, the “SERF2 concentration at which proliferative effect peaks, H9c2” value (AlamarBlue) was determined as 5 µg/mL. Also, the “time to max. proliferation rate, H9c2” value (SERF2 5 μg/ml, incubation 24, 48, 72 and 144 hrs) came to 6 days.
